Active and inactive are the calls of the source.
What was measured:
[1] = target: T1, Sentrin-specific protease 8 (Homo sapiens, UniProt Q96LD8); assay type: functional
T1 sequence (Q96LD8 whole entry): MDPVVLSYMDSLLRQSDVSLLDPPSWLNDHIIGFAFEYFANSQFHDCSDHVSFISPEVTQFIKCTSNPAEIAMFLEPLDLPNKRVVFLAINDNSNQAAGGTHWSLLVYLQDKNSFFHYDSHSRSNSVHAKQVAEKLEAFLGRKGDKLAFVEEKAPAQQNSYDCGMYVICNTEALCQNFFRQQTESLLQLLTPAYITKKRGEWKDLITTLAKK

[2] = target: T2, Histone-lysine N-methyltransferase NSD2 (Homo sapiens, UniProt O96028); assay type: biochemical
T2 sequence (O96028 whole entry): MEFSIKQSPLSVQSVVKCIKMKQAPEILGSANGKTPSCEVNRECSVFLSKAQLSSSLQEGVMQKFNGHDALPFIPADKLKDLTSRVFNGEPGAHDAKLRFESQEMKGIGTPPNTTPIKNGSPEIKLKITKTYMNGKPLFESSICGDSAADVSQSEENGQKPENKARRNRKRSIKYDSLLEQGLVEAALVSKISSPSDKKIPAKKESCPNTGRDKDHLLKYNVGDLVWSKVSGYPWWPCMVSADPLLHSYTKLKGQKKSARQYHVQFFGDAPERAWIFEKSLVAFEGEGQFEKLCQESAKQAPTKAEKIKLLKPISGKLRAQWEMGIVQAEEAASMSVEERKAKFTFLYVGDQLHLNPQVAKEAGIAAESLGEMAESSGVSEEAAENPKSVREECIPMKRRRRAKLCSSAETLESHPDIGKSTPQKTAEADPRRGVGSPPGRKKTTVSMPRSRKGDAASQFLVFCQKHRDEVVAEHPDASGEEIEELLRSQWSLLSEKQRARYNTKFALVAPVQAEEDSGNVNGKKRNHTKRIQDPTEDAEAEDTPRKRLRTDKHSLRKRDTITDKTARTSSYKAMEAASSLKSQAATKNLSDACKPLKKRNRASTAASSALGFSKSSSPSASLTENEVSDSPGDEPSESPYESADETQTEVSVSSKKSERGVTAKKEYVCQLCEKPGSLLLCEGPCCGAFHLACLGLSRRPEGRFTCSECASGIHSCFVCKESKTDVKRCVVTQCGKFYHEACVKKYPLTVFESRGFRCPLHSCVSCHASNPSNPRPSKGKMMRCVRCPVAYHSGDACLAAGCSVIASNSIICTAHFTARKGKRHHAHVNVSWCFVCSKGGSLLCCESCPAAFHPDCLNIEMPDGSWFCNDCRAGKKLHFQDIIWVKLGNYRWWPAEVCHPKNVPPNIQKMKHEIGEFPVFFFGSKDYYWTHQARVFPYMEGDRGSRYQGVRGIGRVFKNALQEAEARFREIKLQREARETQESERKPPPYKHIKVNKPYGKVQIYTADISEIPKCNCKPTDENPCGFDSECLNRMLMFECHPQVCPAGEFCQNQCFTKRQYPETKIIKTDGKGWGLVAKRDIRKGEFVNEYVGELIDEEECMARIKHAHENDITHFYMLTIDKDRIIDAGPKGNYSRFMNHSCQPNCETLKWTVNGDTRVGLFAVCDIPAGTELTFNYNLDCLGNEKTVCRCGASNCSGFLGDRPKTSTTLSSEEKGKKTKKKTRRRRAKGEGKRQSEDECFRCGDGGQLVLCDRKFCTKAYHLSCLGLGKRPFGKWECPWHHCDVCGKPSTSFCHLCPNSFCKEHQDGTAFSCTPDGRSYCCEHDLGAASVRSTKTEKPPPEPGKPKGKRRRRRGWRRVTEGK

[3] = target: T1, Sentrin-specific protease 8; assay type: functional; remark: listed apart in the source
Vero = assay: viability of Vero cells under compound – cytotoxicity control for flavivirus capping enzyme inhibitors (AID 588742); assay type: functional; details: Chlorocebus sabaeus
Escherichia coli = assay: microbe, parasite or virus in culture
[4] = A cytotoxicity screen of small molecule inhibitors of the PhoP region in Salmonella typhi identified in the primary screen. [Related pubchem assays: 1850, 1864, 1985 ]; assay type: functional
[5] = intracellular Trypanosoma cruzi inhibitors in host cells – cell-based, plate reader, cherry-pick samples, set 3, dose response (AID 651818); assay type: functional;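 also: compounds incubated with infected cells for about four days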
Cytochrome P450 3A4 = Cytochrome P450 3A4 (Homo sapiens, UniProt P08684); details: Potency;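 also: confirmatory qHTS run detecting inhibitors and substrates of CYP3A4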
[6] = target: Glucose-6-phosphate 1-dehydrogenase (Homo sapiens, UniProt P11413); assay: inhibition of Homo sapiens G6PD, dose series – biochemical, fluorescence, selectivity assay for P. falciparum G6PD inhibitor project, dose response (AID 504792); assay type: functional
Beta-galactosidase = Beta-galactosidase (Escherichia coli, UniProt Q8VNN2); assay: Dose response counterscreen for EBI2 assay utilizing the enzyme, b-galactosidase.; assay type: functional
HEK293 = assay: EBV LMP1 TES2 canonical NF-kB signalling blockers – cell-based, HEK293, luciferase, cherry-pick, dose response (AID 588343); assay type: functional; details: Homo sapiens
[7] = Luminescence Cell-Based Dose Response HTS to Identify Inhibitors of 5'UTR Stem-Loop Driven Prion Protein mRNA Translation in H4 Neuroglioblastoma Cells. [Related pubchem assays: 1827 (Project Summary), 1813 (Primary HTS)]; assay type: functional
HT-1080 = assay: HT1080 cell viability loss – fluorescence readout (AID 620); assay type: functional, cell-based; details: Homo sapiens
[8] = alpha-synuclein stem-loop luciferase translation blockers – H4 neuroglioma cells, luminescence, confirmation (AID 1988); assay type: functional, cell-based
[9] = luciferase reporter signal suppression in cells – H4 neuroglioma cells, luminescence, dose response (AID 1990); assay type: functional, cell-based
[10] = target: Luciferin 4-monooxygenase (Photinus pyralis, UniProt P08659); assay: Counter Screen for Luciferase-based Assay Positives. [Related pubchem assays: 620, 618, 411 ]
Cytochrome P450 2D6 = Cytochrome P450 2D6 (Homo sapiens, UniProt P10635);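 also: CYP2D6 member of a cytochrome P450 panel assay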
Cytochrome P450 2C9 [11] = target: T3, Cytochrome P450 2C9 (Homo sapiens, UniProt P11712)
Cytochrome P450 2C9 [12] = target: T3, Cytochrome P450 2C9; remark: listed apart in the source

Chain of Beta-galactosidase (Q8VNN2 whole entry): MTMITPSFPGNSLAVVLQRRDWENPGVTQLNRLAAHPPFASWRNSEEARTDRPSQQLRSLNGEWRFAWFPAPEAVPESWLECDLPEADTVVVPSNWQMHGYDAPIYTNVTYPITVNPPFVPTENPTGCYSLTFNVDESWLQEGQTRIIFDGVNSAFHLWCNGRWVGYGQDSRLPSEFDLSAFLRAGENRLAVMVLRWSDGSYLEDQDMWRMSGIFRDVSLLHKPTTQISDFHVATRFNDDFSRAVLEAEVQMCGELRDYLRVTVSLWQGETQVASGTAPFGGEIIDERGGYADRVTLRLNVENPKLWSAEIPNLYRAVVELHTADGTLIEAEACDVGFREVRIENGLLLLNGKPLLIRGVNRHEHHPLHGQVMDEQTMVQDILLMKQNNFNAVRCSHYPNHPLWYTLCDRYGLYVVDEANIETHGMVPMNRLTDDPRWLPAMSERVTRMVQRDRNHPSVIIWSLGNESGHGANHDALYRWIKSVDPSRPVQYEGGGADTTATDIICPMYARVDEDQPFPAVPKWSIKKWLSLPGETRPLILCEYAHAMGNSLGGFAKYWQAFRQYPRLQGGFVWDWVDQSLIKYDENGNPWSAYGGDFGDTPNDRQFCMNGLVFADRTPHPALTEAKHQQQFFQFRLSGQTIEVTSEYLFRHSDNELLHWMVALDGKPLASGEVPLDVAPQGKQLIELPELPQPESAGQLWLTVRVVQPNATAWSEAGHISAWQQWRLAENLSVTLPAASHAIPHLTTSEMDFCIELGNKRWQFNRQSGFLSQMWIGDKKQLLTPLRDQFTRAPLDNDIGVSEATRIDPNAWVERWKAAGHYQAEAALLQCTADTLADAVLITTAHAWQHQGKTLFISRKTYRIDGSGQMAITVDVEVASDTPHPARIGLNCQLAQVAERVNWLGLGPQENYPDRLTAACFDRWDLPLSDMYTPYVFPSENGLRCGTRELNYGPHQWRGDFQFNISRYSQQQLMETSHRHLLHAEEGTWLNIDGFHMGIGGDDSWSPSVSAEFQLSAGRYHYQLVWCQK
Chain of Glucose-6-phosphate 1-dehydrogenase (P11413 whole entry): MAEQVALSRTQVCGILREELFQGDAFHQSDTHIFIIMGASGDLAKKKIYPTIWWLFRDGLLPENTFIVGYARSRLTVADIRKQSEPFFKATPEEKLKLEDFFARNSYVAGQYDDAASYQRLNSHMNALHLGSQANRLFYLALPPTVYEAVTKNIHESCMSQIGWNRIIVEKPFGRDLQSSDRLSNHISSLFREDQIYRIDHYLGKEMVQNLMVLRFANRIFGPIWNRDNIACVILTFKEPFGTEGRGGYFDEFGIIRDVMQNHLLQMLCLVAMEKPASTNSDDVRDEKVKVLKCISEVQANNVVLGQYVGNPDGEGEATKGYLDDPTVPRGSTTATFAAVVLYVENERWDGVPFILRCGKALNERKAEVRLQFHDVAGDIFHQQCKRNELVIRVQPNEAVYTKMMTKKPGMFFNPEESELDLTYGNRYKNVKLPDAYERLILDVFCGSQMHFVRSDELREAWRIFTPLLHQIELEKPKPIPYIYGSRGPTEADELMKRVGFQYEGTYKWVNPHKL
Chain of Cytochrome P450 3A4 (P08684 whole entry): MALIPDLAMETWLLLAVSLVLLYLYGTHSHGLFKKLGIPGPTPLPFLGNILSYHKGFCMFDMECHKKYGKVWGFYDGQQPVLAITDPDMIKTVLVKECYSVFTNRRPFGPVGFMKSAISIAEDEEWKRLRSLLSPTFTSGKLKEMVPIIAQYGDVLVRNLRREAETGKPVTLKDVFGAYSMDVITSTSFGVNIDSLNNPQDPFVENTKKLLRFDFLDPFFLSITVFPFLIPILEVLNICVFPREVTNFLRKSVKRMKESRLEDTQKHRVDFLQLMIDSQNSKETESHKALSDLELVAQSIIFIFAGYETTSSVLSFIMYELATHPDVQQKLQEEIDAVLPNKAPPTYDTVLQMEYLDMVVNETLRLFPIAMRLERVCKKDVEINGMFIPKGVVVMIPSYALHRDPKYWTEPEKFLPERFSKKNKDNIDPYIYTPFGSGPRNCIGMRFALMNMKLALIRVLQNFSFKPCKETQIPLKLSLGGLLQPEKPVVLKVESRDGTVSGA
T3 sequence (P11712 whole entry): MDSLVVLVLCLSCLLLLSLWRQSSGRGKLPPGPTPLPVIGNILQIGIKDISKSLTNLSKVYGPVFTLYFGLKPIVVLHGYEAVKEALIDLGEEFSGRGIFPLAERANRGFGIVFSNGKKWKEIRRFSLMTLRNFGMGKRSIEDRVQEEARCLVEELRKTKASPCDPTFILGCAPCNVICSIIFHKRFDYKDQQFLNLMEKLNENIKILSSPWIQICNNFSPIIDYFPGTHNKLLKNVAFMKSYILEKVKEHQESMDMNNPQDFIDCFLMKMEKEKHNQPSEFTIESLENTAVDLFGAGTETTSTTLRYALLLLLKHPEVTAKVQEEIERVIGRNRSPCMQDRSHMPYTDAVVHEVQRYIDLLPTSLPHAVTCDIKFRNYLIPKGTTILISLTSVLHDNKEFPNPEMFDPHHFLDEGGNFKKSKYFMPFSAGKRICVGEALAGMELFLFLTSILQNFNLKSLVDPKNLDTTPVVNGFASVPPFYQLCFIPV
Chain of Luciferin 4-monooxygenase (P08659 whole entry): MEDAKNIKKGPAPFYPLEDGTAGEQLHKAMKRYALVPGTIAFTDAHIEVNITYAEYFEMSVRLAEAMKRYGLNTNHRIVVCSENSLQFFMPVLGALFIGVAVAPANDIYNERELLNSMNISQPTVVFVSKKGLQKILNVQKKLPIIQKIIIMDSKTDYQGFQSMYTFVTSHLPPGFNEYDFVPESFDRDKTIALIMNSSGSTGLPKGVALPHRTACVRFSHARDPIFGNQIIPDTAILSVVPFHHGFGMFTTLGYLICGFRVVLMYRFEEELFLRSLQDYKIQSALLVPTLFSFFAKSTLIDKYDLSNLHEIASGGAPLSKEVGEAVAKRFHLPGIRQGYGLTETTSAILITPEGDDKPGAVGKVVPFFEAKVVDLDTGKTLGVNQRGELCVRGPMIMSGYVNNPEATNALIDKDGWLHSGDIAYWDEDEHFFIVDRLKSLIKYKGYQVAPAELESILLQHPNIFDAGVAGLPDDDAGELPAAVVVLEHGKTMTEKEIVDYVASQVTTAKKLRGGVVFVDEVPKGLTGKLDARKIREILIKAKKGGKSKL
Chain of Cytochrome P450 2D6 (P10635 whole entry): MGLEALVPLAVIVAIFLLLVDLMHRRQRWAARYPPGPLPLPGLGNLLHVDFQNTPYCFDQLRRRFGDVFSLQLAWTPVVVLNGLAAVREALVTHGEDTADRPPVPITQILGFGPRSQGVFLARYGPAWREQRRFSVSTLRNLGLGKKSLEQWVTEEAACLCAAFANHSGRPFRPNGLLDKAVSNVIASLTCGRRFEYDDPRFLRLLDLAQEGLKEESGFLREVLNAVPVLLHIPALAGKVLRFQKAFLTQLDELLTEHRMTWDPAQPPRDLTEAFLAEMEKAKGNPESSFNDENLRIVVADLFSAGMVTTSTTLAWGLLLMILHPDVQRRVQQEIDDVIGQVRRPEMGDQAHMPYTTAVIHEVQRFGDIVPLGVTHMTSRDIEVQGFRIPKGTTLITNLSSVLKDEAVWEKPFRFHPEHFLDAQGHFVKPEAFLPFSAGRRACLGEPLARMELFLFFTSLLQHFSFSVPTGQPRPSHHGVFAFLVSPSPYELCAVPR

COc1cc(OC)c([N+](=O)[O-])cc1/C=N/NC(=O)c1ccncc1
IC50 [1]: 12.3 µM (active)
AC50 [2]: > 20 µM (inactive)
IC50 [3]: 9.81 µM (active)

C[N+]1(C)CCC(=C2c3ccccc3CC(=O)c3sccc32)CC1
IC50 [1]: 30.4 µM (active)
IC50 [3]: 12.6 µM (active)

COc1ccc(C(=O)c2c3ccc([N+](=O)[O-])cc3[n+]([O-])n2CCCN)cc1
IC50 [1]: 14.4 µM (active)
CC50 (Vero): 30.6 µM (active)
IC50 [3]: 9.21 µM (active)

CC(C)Sc1nc2c(c(=O)[nH]c(=O)n2C)n1CCc1ccccc1
AC50 (Escherichia coli): 33.2 µM (active)

CCCCCCC(=O)N(O)C1CC(=O)N(Cc2ccccc2)C1=O (centres undefined)
EC50 [4]: > 50 µM (active)

CCOC(=O)c1ccc(NC(=O)CN2CCc3ccccc3C2)cc1
IC50 [1]: > 100 µM (inactive)
IC50 [3]: 21.6 µM (active)

C[C@H]1CN([C@@H](C)CO)C(=O)c2cccc(NC(=O)Nc3ccc(F)cc3)c2O[C@H]1CN(C)Cc1ccc(C(=O)Nc2ccccc2N)cc1
AC50 [5]: 2.74 µM (active)

CC1(C)CC[C@]2(C(=O)O)C(O)C[C@@]3(C)C(=CCC4[C@@]5(C)CCC(O)C(C)(C)C5CC[C@@]43C)C2C1 (some centres undefined)
AC50 (Cytochrome P450 3A4): 15.8 µM (inconclusive)

COc1ccc(CCn2c(NN=C(C)C)nc3c2c(=O)[nH]c(=O)n3C)cc1
IC50 [6]: 77.8 µM (inactive)

COc1ccccc1-c1cc2nc(C)c(CCC(=O)NC(C)CCc3ccco3)c(C)n2n1 (centres undefined)
EC50 [4]: > 50 µM (active)

O=C1CCN(Cc2ccccc2)C=C1c1ccc2ccccc2c1
IC50 (Beta-galactosidase): > 80 µM (inactive)

O=C(/C=C(\O)c1ccccc1)c1ccccc1O [2',beta-DIHYDROXYCHALCONE]
AC50 (Cytochrome P450 3A4): 15.8 µM (inconclusive)

COc1ccc(CCn2c(NN)nc3c2c(=O)[nH]c(=O)n3C)cc1
IC50 [6]: 50.2 µM (inactive)

Cc1ccc(C(=O)NNC(=O)CSc2nnc(-c3ccccc3)n2Cc2ccccc2)cc1
IC50 (Beta-galactosidase): > 80 µM (inactive)

O=C(N/N=C/c1cc(Br)cc(Br)c1O)c1ccccc1O
AC50 [5]: 1.85 µM (active)

CCn1cc(/C=C/C(=O)Nc2ccn(Cc3c(F)c(F)cc(F)c3F)n2)cn1
IC50 [1]: 28.9 µM (active)
IC50 [3]: 9.64 µM (active)

CC(=O)N(Cc1ccc(F)cc1)c1cccc(C)c1C
AC50 (Escherichia coli): 23.7 µM (active)

CC1=C(/C=C/C(C)=C/C=C/C(C)=C/C=O)C(C)(C)CCC1 [RETINAL]
AC50 (Cytochrome P450 3A4): 12.6 µM (inconclusive)

O=C(CSc1cccc[n+]1[O-])Nc1ccccc1C(F)(F)F
AC50 (Escherichia coli): 48.6 µM (active)

CCC(CC)C(=O)N(C)c1c(C)nc2c(OCC=C(C)C)cccn12
IC50 [1]: > 100 µM (inactive)
IC50 [3]: 33.4 µM (active)

COc1ccccc1NC(=O)CN1CCN(c2ccccc2)CC1
EC50 [4]: > 50 µM (active)

COc1cccc(C(=O)Nc2nnc(C(C)C)s2)c1
IC50 [6]: 52.7 µM (inactive)

CN1CCN(C(=O)/C=C\c2ccc(Cl)cc2)CC1
IC50 (Beta-galactosidase): > 80 µM (inactive)

COc1ccc(NC(=O)c2cc(Br)c(Br)s2)cn1
EC50 [4]: > 50 µM (active)

C[C@H]1CN([C@@H](C)CO)C(=O)Cc2cc(NC(=O)CCC(F)(F)F)ccc2O[C@H]1CN(C)Cc1ccc(C(=O)Nc2ccccc2N)cc1
AC50 [5]: 5.91 µM (active)

COc1ccc(C2CC(=O)c3ccc(OC)cc3O2)cc1 (centres undefined) [LIQUIRITIGENIN DIMETHYL ETHER]
AC50 (Cytochrome P450 3A4): 20 µM (inconclusive)

Clc1ccc2nc(-c3ccc4c(c3)OCO4)cn2c1
AC50 (HEK293): 4.13 µM (active)
IC50 [6]: > 80 µM (inactive)

CCCn1c(-c2ccc(F)cc2)nc2c(NCC3CCCN3CC)nc(C)nc21 (centres undefined)
AC50 (Cytochrome P450 3A4): 15.8 µM (inconclusive)

C[C@@H]1CN([C@@H](C)CO)C(=O)c2cccc(NC(=O)Nc3ccc(F)cc3)c2O[C@H]1CN(C)Cc1ccc(C(=O)Nc2ccccc2N)cc1
AC50 [5]: 0.46 µM (active)

Cn1c(-c2ccccc2)cnc1SCC(=O)N1CCCCC1
EC50 [7]: 5.72 µM (active)
AC50 (HEK293): 2.47 µM (active)
EC50 (HT-1080): > 50 µM (not active)
EC50 [8]: 3.2 µM (active)
EC50 [9]: 8.1 µM (inconclusive)
EC50 [10]: 22.8 µM (active)

O=C(Nc1ccccc1)Oc1cccnc1O
EC50 [4]: > 50 µM (active)

C[C@@H]1CCCCO[C@H](CN(C)S(=O)(=O)c2ccc(Cl)cc2)[C@@H](C)CN([C@H](C)CO)C(=O)c2cc(NC(=O)Nc3ccc(C(F)(F)F)cc3)ccc2O1
AC50 [5]: 3 µM (active)

Cc1ccc(NS(=O)(=O)c2ccccc2Cl)c2c1CC(C)(C)O2
AC50 (Cytochrome P450 2D6): 15.8 µM (inconclusive)
IC50 [6]: > 80 µM (inactive)
AC50 (Cytochrome P450 2C9 [11]): inconclusive

COc1ccccc1NS(=O)(=O)c1cccc(NC2=NC(=N)c3ccccc32)c1
AC50 (Escherichia coli): 99.5 µM (active)

Cc1ccccc1NC1=NC(=S)N(c2ccccc2)C12CCOC(C)(C)C2 (centres undefined)
AC50 (Escherichia coli): 22.6 µM (active)
AC50 (Cytochrome P450 2C9 [12]): 11.2 µM (inconclusive)

CCN1CCCC1CNC(=O)c1cc2cc(F)ccc2[nH]1 (centres undefined)
EC50 [4]: > 50 µM (active)

Cc1cc(Cl)ccc1OCCCC(=O)N1CCCc2ccccc21
EC50 [4]: > 50 µM (active)

O=C(Nc1ccc(Oc2ccccc2)nc1)C1CCCCN1Cc1cccc(O)c1 (centres undefined)
IC50 (Beta-galactosidase): > 80 µM (inactive)

CC(=O)OC1CC2C(C)(C)C(O)CCC2(C)C2CC[C@]3(C)C(=CC(=O)OC3c3ccoc3)C12C (some centres undefined)
AC50 (Cytochrome P450 3A4): 39.8 µM (inconclusive)

COC(=O)C1(S(=O)(=O)C2(C(=O)OC)CCCC2)CCCC1
AC50 (Escherichia coli): > 150 µM (inactive)

C[C@H](CO)N1C[C@H](C)[C@@H](CN(C)Cc2ccc(C(=O)Nc3ccccc3N)cc2)Oc2c(NC(=O)Nc3ccccc3)cccc2C1=O
AC50 [5]: 1.61 µM (active)

Cc1ccc(S(=O)(=O)Nc2ccc3c(c2)CC(=O)N([C@@H](C)CO)C[C@@H](C)[C@@H](CN(C)S(=O)(=O)c2ccc(C)cc2)O3)cc1
AC50 [5]: 6.15 µM (active)

Reference: ChEMBL document CHEMBL1201862, “PubChem BioAssay data set” (2004)
